# Measured values taken from patent US20250026752A1, “POSITIVE ALLOSTERIC MODULATORS OF THE MUSCARINIC ACETYLCHOLINE RECEPTOR M4” (Vanderbilt University, priority 2021, published 2025).
# Molecular target: T1, human mAChR M4 (Homo sapiens, UniProt P08173)
# T1 construct: expressed in transfected cells; host or cells: CHO-K1 (ATCC), stably expressing hM4 and Gqi5
# T1 sequence (P08173 1-479): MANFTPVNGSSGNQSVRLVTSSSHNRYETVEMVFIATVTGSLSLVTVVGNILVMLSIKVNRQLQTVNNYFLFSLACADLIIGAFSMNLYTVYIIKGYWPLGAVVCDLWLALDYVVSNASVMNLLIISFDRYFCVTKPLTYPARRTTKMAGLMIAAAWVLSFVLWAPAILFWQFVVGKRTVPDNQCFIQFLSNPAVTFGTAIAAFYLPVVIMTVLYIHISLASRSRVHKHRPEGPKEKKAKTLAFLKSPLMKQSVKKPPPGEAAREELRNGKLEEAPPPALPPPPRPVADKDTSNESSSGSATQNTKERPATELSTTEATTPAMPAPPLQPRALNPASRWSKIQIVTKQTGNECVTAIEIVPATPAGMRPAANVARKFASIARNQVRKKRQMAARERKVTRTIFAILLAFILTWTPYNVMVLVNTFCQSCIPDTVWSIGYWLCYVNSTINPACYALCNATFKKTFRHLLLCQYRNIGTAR
# Test: mAChR M4 cell-based functional assay: calcium flux (Fluo-4, FDSS), positive allosteric modulator activity on the EC20 acetylcholine response, hM4-Gqi5 CHO-K1 cells
# Details: for Emax at 30 µM: CHO-K1, human M4, % ACh maximum at 30 μM; for EC50: human M4, PAM activity on EC20 acetylcholine response, calcium flux, read-out: Human M4 EC50
# Method: Human M4 cDNA, along with the chimeric G protein Gqi5, were transfected into Chinese hamster ovary (CHO-K1) cells purchased from the American Type Culture Collection using commercially available Lipofectamine 2000 transfection reagent (Dalby, B. et al., Methods (2004) 33(2), 95-103). hM4-Gqi5 cells were grown in Ham's F-12 medium containing 10% heat-inactivated fetal bovine serum (FBS), 20 mM […], 50 μg/mL G418 sulfate (CAS #108321-42-2), and 500 μg/mL Hygromycin B. rM4-Gqi5 cells were grown in DMEM containing 10% heat-inactivated FBS, 20 mM HEPES, 400 μg/mL G418 sulfate, and 500 μg/mL Hygromycin B.
# For high throughput measurement of agonist-evoked increases in intracellular calcium, CHO-K1 cells stably expressing muscarinic receptors were plated in growth medium lacking G418 sulfate and hygromycin at 15,000 cells/20 μL/well in Greiner 384-well black-walled, tissue culture (TC)-treated, clear-bottom plates (VWR). Cells were incubated overnight at 37° C. and 5% C02. The next day, cells were washed using an ELX 405 (BioTek) with assay buffer; the final volume was then aspirated to 20 μL. Next, 20 μL of a 2.3 μM stock of Fluo-4/acetoxymethyl ester (Invitrogen, Carlsbad, CA), prepared as a 2.3 mM stock in DMSO and mixed in a 1:1 ratio with 10% (w/v) Pluronic F-127 and diluted in assay buffer, was added to the wells and the cell plates were incubated for 50 minutes at 37° C. and 5% C02. Dye was removed by washing with the ELX 405 and the final volume was aspirated to 20 μL. Compound master plates were formatted in an 11 point concentration-response curve (CRC) format (1:3 dilutions) in 100% DMSO with a starting concentration of 10 mM using a BRAVO liquid handler (Agilent). Test compound CRCs were then transferred to daughter plates (240 nL) using the Echo acoustic plate reformatter (Labcyte, Sunnyvale, CA) and then diluted into assay buffer (40 μL) to a 2× stock using a Thermo Fisher Combi (Thermo Fisher Scientific, Waltham, MA).
# Calcium flux was measured using the Functional Drug Screening System (FDSS) 6000 or 7000 (Hamamatsu Corporation, Tokyo, Japan) as an increase in the fluorescent static ratio. Compounds were applied to cells (20 μL, 2×) using the automated system of the FDSS at 2-4 seconds into the protocol and the data were collected at 1 Hz. At 144 seconds, 10 μL of an EC20 concentration of the muscarinic receptor agonist acetylcholine was added (5×), followed by the addition of 12 μL of an EC80 concentration of acetylcholine at the 230 second time point (5×). Agonist activity was analyzed as a concentration-dependent increase in calcium mobilization upon compound addition. Positive allosteric modulator activity was analyzed as a concentration-dependent increase in the EC20 acetylcholine response. With the acetylcholine EC20 set as baseline, the test compound EC50 is determined as the concentration that produces an increase above baseline of 50% of the maximum increase in acetylcholine response elicted by the test compound. Antagonist activity was analyzed as a concentration-dependent decrease in the ECso acetylcholine response. Concentration-response curves were generated using a four-parameter logistical equation in XLFit curve fitting software (IDBS, Bridgewater, NJ) for Excel (Microsoft, Redmond, WA) or Prism (GraphPad Software, Inc., San Diego, CA).
# Compounds were synthesized as described above. Activity (EC50 and Emax) was determined in the mAChR M4 cell-based functional assay as described above and the data are shown in Table 4. The compound numbers correspond to the compound numbers used in Examples 1-33 and Tables 1, 2, and 3.
compound,measurement,value
"Cc1nc(N2CCc3ncc(N4CCN(C)C5(COC5)C4)cc3C2)c2cc(Cl)ccc2n1 [Compound 285, 8-(6-(6-chloro-2-methylquinazolin-4-yl)-5,6,7,8-tetrahydro-1,6-naphthyridin-3-yl)-5-methyl-2-oxa-5,8-diazaspiro[3.5]nonane]",Emax at 30 µM,98%
same,EC50,580 nM
"Fc1ccc2ncnc(N3CCc4ncc(N5CCCn6ccnc65)cc4C3)c2c1 [Compound 275, 4-(3-(6,7-dihydroimidazo[1,2-a]pyrimidin-8(5H)-yl)-7,8-dihydro-1,6-naphthyridin-6(5H)-yl)-6-fluoroquinazoline]",Emax at 30 µM,73%
same,EC50,2240 nM
"FC(F)(F)c1cnc2c(c1)CN(c1ncnc3ccc(Br)cc13)CC2 [Compound 136, 6-bromo-4-[3-(trifluoromethyl)-7,8-dihydro-5H-1,6-naphthyridin-6-yl]quinazoline]",Emax at 30 µM,98%
same,EC50,160 nM
"CC1CN(c2ncnc3ccc(F)cc23)Cc2cc(Nc3cccnc3)cnc21 (centres unmarked) [Compound 234, 6-(6-fluoroquinazolin-4-yl)-8-methyl-N-(pyridin-3-yl)-5,6,7,8-tetrahydro-1,6-naphthyridin-3-amine]",Emax at 30 µM,86%
same,EC50,110 nM
"Cc1ccc2nc(C)nc(N3CCc4ncc(-c5cnc(C)s5)cc4C3)c2c1 [Compound 55, 5-[6-(2,6-dimethylquinazolin-4-yl)-7,8-dihydro-5H-1,6-naphthyridin-3-yl]-2-methyl-thiazole]",Emax at 30 µM,92%
same,EC50,480 nM
"Cc1cc2n(n1)CCCN2c1cnc2c(c1)CN(c1ncnc3ccc(F)cc13)CC2 [Compound 226, 6-fluoro-4-(3-(2-methyl-6,7-dihydropyrazolo[1,5-a]pyrimidin-4(5H)-yl)-7,8-dihydro-1,6-naphthyridin-6(5H)-yl)quinazoline]",Emax at 30 µM,103%
same,EC50,60 nM
"Clc1ccc2ncnc(N3CCc4ncc(N5CCCn6nccc65)cc4C3)c2c1 [Compound 83, 6-chloro-4-[3-(6,7-dihydro-5H-pyrazolo[1,5-a]pyrimidin-4-yl)-7,8-dihydro-5H-1,6-naphthyridin-6-yl]quinazoline]",Emax at 30 µM,108%
same,EC50,20 nM
"Cc1nc(N2CCc3ncc(-c4ccccc4C)cc3C2)c2cc(F)ccc2n1 [Compound 294, 6-fluoro-2-methyl-4-(3-(o-tolyl)-7,8-dihydro-1,6-naphthyridin-6(5H)-yl)quinazoline]",Emax at 30 µM,68%
same,EC50,1630 nM
"FC(F)(F)c1ccc2nc(N3CCc4ncc(C5CC5)cc4C3)nc(N3CCc4ncc(C5CC5)cc4C3)c2c1 [Compound 163, 2,4-bis(3-cyclopropyl-7,8-dihydro-5H-1,6-naphthyridin-6-yl)-6-(trifluoromethyl)quinazoline]",Emax at 30 µM,57%
same,EC50,> 10000 nM
"Cc1nc(N2CCc3ncc(-c4ccnn4C)cc3C2)c2cc(F)ccc2n1 [Compound 20, 6-fluoro-2-methyl-4-[3-(2-methylpyrazol-3-yl)-7,8-dihydro-5H-1,6-naphthyridin-6-yl]quinazoline]",Emax at 30 µM,86%
same,EC50,150 nM
"Cc1nc(N2CCc3ncc(-c4cn(C)nc4C)cc3C2)c2cc(Cl)ccc2n1 [Compound 7, 6-chloro-4-[3-(1,3-dimethylpyrazol-4-yl)-7,8-dihydro-5H-1,6-naphthyridin-6-yl]-2-methyl-quinazoline]",Emax at 30 µM,93%
same,EC50,250 nM
"Cc1nn(C)cc1-c1cnc2c(c1)CN(c1nc(-c3cn(C)nc3C)nc3ccc(Cl)cc13)CC2 [Compound 188, 6-chloro-2-(1,3-dimethylpyrazol-4-yl)-4-[3-(1,3-dimethylpyrazol-4-yl)-7,8-dihydro-5H-1,6-naphthyridin-6-yl]quinazoline]",Emax at 30 µM,68%
same,EC50,1910 nM
"Cc1ccc2ncnc(N3CCc4ncc(-c5cc(F)ccc5C)cc4C3)c2c1 [Compound 299, 4-(3-(5-fluoro-2-methylphenyl)-7,8-dihydro-1,6-naphthyridin-6(5H)-yl)-6-methylquinazoline]",Emax at 30 µM,94%
same,EC50,1200 nM
"Cc1nc(N2CCc3ncc(C(F)(F)F)cc3C2)c2cc(F)c(C)cc2n1 [Compound 172, 6-fluoro-2,7-dimethyl-4-[3-(trifluoromethyl)-7,8-dihydro-5H-1,6-naphthyridin-6-yl]quinazoline]",Emax at 30 µM,81%
same,EC50,810 nM
"Fc1ccc2ncnc(N3CCc4ncc(N5CCOC(c6cccnc6)C5)cc4C3)c2c1 (centres unmarked) [Compound 229, 4-(6-(6-fluoroquinazolin-4-yl)-5,6,7,8-tetrahydro-1,6-naphthyridin-3-yl)-2-(pyridin-3-yl)morpholine]",Emax at 30 µM,86%
same,EC50,510 nM
"CC1(C)CN(c2nc(N3CCc4ncc(N5CCCn6nccc65)cc4C3)c3cccnc3n2)CCO1 [Compound 249, 4-(4-(3-(6,7-dihydropyrazolo[1,5-a]pyrimidin-4(5H)-yl)-7,8-dihydro-1,6-naphthyridin-6(5H)-yl)pyrido[2,3-d]pyrimidin-2-yl)-2,2-dimethylmorpholine]",Emax at 30 µM,47%
same,EC50,810 nM
"Cc1ccc2ncnc(N3CCc4ncc(-c5cn(C)nc5C)cc4C3)c2c1 [Compound 14, 4-[3-(1,3-dimethylpyrazol-4-yl)-7,8-dihydro-5H-1,6-naphthyridin-6-yl]-6-methyl-quinazoline]",Emax at 30 µM,117%
same,EC50,160 nM
"Cc1nc(N2CCc3ncc(N4CCO[C@H](c5ccccc5)C4)cc3C2)c2cc(F)ccc2n1 [Compound 217, (R)-4-(6-(6-fluoro-2-methylquinazolin-4-yl)-5,6,7,8-tetrahydro-1,6-naphthyridin-3-yl)-2-phenylmorpholine]",Emax at 30 µM,84%
same,EC50,1700 nM
"Cc1nc(N2CCc3ncc(C4CC4)cc3C2)c2cc(C(F)(F)F)ccc2n1 [Compound 165, 4-(3-cyclopropyl-7,8-dihydro-5H-1,6-naphthyridin-6-yl)-2-methyl-6-(trifluoromethyl)quinazoline]",Emax at 30 µM,77%
same,EC50,1810 nM
"Cn1nccc1Nc1nc(N2CCc3ncc(C(F)(F)F)cc3C2)c2cc(F)ccc2n1 [Compound 197, 6-fluoro-N-(2-methylpyrazol-3-yl)-4-[3-(trifluoromethyl)-7,8-dihydro-5H-1,6-naphthyridin-6-yl]quinazolin-2-amine]",Emax at 30 µM,98%
same,EC50,340 nM
"CC1Cc2ncc(C(F)(F)F)cc2CN1c1ncnc2ccc(F)cc12 (centres unmarked) [Compound 155, 6-fluoro-4-[7-methyl-3-(trifluoromethyl)-7,8-dihydro-5H-1,6-naphthyridin-6-yl]quinazoline]",Emax at 30 µM,98%
same,EC50,60 nM
"Fc1ccc2ncnc(N3CCc4ncc(N5CCCn6nc(C7CC7)cc65)cc4C3)c2c1 [Compound 280, 4-(3-(2-cyclopropyl-6,7-dihydropyrazolo[1,5-a]pyrimidin-4(5H)-yl)-7,8-dihydro-1,6-naphthyridin-6(5H)-yl)-6-fluoroquinazoline]",Emax at 30 µM,90%
same,EC50,390 nM
